Data published in patent US20250064773A1, “TARGETING ERO1 ALPHA WITH AURONE DERIVATIVES” (West Virginia University Board of Governors on behalf of …, priority 2021, published 2025).

Assays:
LSD-1 [1] = target: T1, LSD-1 (Homo sapiens, UniProt O60341); assay: Cellular thermal shift assay (CETSA) in PC-9 cells, LSD-1; type: cell-based; details: 100 μM
From the text: To date activity of T151742 towards other flavoenzymes has not been identified at this time. We utilized the Cellular Thermal Shift Assay (CETSA) to determine target engagement of T151742 in vitro using the non-small cell lung cancer (NSCLC) cell line PC-9. The EGFR driven PC-9 cell line was chosen as new treatment strategies are needed in EGFR driven NSCLC as most patients relapse and become resistant to current targeted therapies with development of further mutations such as T790M, C797S as well as emergence of EGFR independent tumors^42, 43. […] First, we determined the aggregation temperature (Tagg) of ERO1α, ERO1β, and LSD-1, which are all FAD dependent enzymes and potential in vitro targets of T15742. […]
Upon addition of T151742, Tagg was quantified for ERO1α, ERO1β, and LSD-1. Quantification of the average of n=3 independent experiments based on western blot analysis for ERO1α, ERO1β, and LSD-1. […] Cellular viability was determined by MTT assay. n=3 independent experiments performed in quadruplicates. ****p<0.0001; by two-way ANOVA.
Cell Lines: PC-9 cell line used was obtained from Sigma Aldrich and grown in RPMI 1640 medium with 10% fetal bovine serum and 1% penicillin/streptomycin. […] Plate was then read on the BioTek Cytation 5 at 530/590 nm. […]

LSD-1 [2] = target: T1, LSD-1; assay: LSD-1 inhibitor screening assay kit (demethylase activity); type: biochemical; details: at concentrations ≤25 μM
From the text: T151742 was used to generate a concentration response. […] Experiments performed in triplicates and shown is the mean and standard deviation of three independent experiments.

MAO-A = target: T2, MAO-A (Homo sapiens, UniProt P21397); details: cited from earlier work
T2 sequence (P21397 1-527): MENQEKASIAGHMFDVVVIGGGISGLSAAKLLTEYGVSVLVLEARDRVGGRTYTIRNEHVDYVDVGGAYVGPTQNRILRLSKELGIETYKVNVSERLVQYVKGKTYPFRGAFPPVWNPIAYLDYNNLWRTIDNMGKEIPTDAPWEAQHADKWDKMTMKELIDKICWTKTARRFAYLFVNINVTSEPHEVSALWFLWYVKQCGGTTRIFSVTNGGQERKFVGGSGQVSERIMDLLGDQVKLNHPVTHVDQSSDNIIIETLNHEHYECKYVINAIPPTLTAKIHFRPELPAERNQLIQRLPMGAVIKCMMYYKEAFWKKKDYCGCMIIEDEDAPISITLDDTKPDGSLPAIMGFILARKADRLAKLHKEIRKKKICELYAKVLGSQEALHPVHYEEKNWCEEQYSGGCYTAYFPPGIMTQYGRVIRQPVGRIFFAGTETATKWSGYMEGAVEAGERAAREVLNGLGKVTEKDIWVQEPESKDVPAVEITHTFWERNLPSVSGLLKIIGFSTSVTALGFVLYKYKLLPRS

CN(C)c1ccc(/C=C2\Oc3cc(O)ccc3C2=O)cc1 [Compound T151742]
change of Tagg for LSD-1 (LSD-1 [1]): did not change
inhibition of LSD-1 demethylase activity (LSD-1 [2]): did not inhibit
inhibition of / activity against MAO-A (MAO-A): showed activity
